Each structure is given as a SMILES string.

This assay deals with T1, proTNFα convertase enzyme (TACE) (Homo sapiens, UniProt P78536).
T1 construct: a partially purified, isolated enzyme assay, the enzyme being obtained from the membranes of THP-1; endogenous in cells; host or cells: THP-1 cell membranes (partially purified, per Mohler et al. 1994 Nature 370:218-220)
The assay is described as follows: Partially purified, isolated enzyme assay for proTNFα convertase (TACE), fluorescent peptide substrate. Type of assay: biochemical. The following applies: 10 μM of compound; enzyme from membranes of THP-1. The method, then:
Recombinant human proMMP13 may be expressed and purified as described by Knauper et al. [V. Knauper et al., (1996) The Biochemical Journal 271:1544-1550 (1996)]. […] Activity is determined by measuring the fluorescence at λex 328 nm and λem 393 nm. Percent inhibition is calculated as follows: % Inhibition is equal to the [Fluorescenceplus inhibitor−Fluorescencebackgrouud] divided by the [Fluorescenceminus inhibitor−Fluorescencebackground].
The ability of the compounds to inhibit proTNFα convertase enzyme (TACE) may be assessed using a partially purified, isolated enzyme assay, the enzyme being obtained from the membranes of THP-1 as described by K. M. Mohler et al., (1994) Nature 370:218-220. The purified enzyme activity and inhibition thereof is determined by incubating the partially purified enzyme in the presence or absence of test compounds using the substrate 4′,5′-Dimethoxy-fluoresceinyl Ser.Pro.Leu.Ala.Gln.Ala.Val.Arg.Ser.Ser.Ser.Arg.Cys(4-(3-succinimid-1-yl)-fluorescein)-NH2 in assay buffer (50 mM Tris HCl, pH 7.4 containing 0.1% (w/v) Triton X-100 and 2 mM CaCl2), at 26° C. for 4 hours. The amount of inhibition is determined as for MMP13 except λex 485 nm and λem 538 nm were used. […]

T1 sequence (P78536 215-824): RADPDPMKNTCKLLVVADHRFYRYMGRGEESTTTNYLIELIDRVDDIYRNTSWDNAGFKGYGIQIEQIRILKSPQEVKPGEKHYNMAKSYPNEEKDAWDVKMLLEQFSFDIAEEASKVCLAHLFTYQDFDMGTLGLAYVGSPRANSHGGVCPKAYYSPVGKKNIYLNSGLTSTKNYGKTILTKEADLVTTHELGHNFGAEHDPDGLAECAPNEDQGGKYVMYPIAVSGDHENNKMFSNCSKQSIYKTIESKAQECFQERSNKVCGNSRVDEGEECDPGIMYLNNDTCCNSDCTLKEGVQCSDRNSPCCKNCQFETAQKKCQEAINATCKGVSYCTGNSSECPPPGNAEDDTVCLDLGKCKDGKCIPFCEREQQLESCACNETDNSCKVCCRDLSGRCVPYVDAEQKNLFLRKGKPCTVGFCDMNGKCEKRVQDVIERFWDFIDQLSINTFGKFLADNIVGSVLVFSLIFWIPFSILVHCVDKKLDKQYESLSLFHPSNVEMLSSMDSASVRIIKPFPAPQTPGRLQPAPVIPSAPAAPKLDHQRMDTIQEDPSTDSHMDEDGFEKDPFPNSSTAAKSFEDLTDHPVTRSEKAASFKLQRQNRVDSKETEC

As for `CC#CCOC1CCN(S(=O)(=O)CC(CCCc2ncccn2)N(O)C=O)CC1` (racemic) [compound 1, (R/S)-1-({[4-(But-2-ynyloxy)piperidin-1-yl]sulphonyl}methyl)-4-pyrimidin-2-ylbutyl(hydroxy)formamide], the inhibition (commonly how much of the control response was suppressed) at 10 µM turned out to be 72%.

(Values after US20060063783A1, “Sulphonylpiperidine derivatives containing an alkenyl or alkynyl moiety for use as matrix metalloproteinase inhibitors” (ASTRAZENECA AB, priority 2002, published 2006).)
